The structures appear in SMILES notation. Active and inactive are the calls of the source. The rule behind the calls is not given here.

For data set [1], the system named is HepG2. The experiment in a line: Induction of apoptosis in human HepG2 cells transfected with Nur77 siRNA assessed as early apoptotic cells at 10 uM incubated for 12 hrs by AnnexinV-FITC/PI staining based flow cytometry (reference value: 1.37%). The data set is classed as functional.
Data set [2] has as its target T1, Nuclear receptor subfamily 4immunitygroup A member 1 (Homo sapiens, UniProt P22736). Nature of the data set: Binding affinity to Nur77 ligand binding domain (unknown origin) by surface plasmon resonance analysis.
For data set [3], the target named is T1, Nuclear receptor subfamily 4immunitygroup A member 1. Nature of the data set: Modulation of GFP-Nur77 (unknown origin) transfected in human HepG2 cells assessed as induction of Nur77 translocation from nucleus to mitochondria at 10 uM incubated for 3 hrs by confocal microscopy. The settings on record: filed as modulator.
The subject of data set [4] is HepG2. The experiment in a line: Antitumor activity against human HepG2 cells xenografted in BALB/c nude mouse assessed as decrease in Ki67 expression in tumor tissues at 50 mg/kg, ip administered once every day for 14 days by immunohistochemistry analysis. The settings on record: time 14.0 day. It counts as functional, organism-based.
A short description of data set [5]: Toxicity in BALB/c nude mouse xenografted with human HepG2 cells assessed as body weight loss at 50 mg/kg, ip administered once every day for 14 days. The data set is classed as organism-based. Conditions: in vivo, 336 h, time 14 day.
Another data set concerns HeLa. Nature of the data set: Antiproliferative activity against human HeLa cells assessed as reduction in cell viability incubated for 48 hrs by MTT assay. The data set is classed as functional, cell-based.
A short description of data set [6]: Selectivity index, ratio of IC50 for human L02 cells to IC50 for human A549 cells by MTT assay. The data set is classed as toxicity. The settings on record: L02 cells versus A549 cells, read-out: Ratio IC50.
Data set [7] addresses T1, Nuclear receptor subfamily 4immunitygroup A member 1. Nature of the data set: Binding affinity to pBind-Nur77-LBD (unknown origin) transfected in HEK293T cells co-transfected with pG5-Luc assessed as inhibition of Nur77 transcriptional activity by measuring inhibition of Nur77-driven luciferase activity at 5 uM incubated for 12 hrs by luciferase reporter gene assay. It counts as cell-based. Conditions: filed as modulator.

Data set [8] relates to HepG2. Nature of the data set: Induction of apoptosis in human HepG2 cells transfected with Nur77 siRNA assessed as late apoptotic cells at 10 uM incubated for 12 hrs by AnnexinV-FITC/PI staining based flow cytometry (reference value: 1.98%). It counts as functional.
The nature of data set [9]: Toxicity in BALB/c nude mouse xenografted with human HepG2 cells assessed as effect on liver damage at 50 mg/kg ip administered once every day for 14 days by H and E staining based analysis. It counts as organism-based. The settings on record: in vivo, 336 h, time 14 day.
Data set [10] deals with HepG2. Nature of the data set: Antitumor activity against human HepG2 cells xenografted in BALB/c nude mouse assessed as inhibition of tumor weight at 50 mg/kg, ip administered once every day for 14 days. The data set is classed as functional, organism-based. Conditions: time 14.0 day.
The target in data set [11] is T1, Nuclear receptor subfamily 4immunitygroup A member 1. Nature of the data set: Binding affinity to Nur77 ligand binding domain (unknown origin) by fluorescence quenching assay.
Data set [12] has as its target T2, Retinoic acid receptor RXR-alpha (Homo sapiens) (UniProt P19793).
T2 sequence (whole entry): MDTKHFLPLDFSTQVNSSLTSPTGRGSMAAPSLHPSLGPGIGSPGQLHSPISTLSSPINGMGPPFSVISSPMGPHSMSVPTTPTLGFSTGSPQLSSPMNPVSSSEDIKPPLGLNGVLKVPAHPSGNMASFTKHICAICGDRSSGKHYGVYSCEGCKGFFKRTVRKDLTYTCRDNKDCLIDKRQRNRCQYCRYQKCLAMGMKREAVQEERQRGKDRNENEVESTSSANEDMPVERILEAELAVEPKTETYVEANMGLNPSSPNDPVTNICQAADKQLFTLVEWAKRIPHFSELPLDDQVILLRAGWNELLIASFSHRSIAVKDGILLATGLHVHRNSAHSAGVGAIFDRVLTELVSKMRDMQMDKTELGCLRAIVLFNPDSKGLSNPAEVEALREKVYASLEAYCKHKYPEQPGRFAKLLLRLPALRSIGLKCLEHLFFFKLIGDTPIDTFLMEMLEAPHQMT
The experiment in a line: Binding affinity to pBind-RXRalpha-LBD (unknown origin) transfected in HEK293T cells co-transfected with pG5-Luc at 5 uM incubated for 12 hrs by luciferase reporter gene assay. The data set is classed as cell-based.

Data set [13] relates to HepG2. Nature of the data set: Antiproliferative activity against human HepG2 cells assessed as reduction in cell viability incubated for 48 hrs by MTT assay. The data set is classed as functional, cell-based. Conditions: HepG2, 48 h.
Data set [14] in a line: Toxicity in BALB/c nude mouse xenografted with human HepG2 cells assessed as effect on heart damage at 50 mg/kg ip administered once every day for 14 days by H and E staining based analysis. Conditions: in vivo, 336 h, time 14 day. The data set is classed as organism-based.
A short description of data set [15]: Toxicity in BALB/c nude mouse xenografted with human HepG2 cells assessed as effect on kidney damage at 50 mg/kg ip administered once every day for 14 days by H and E staining based analysis. The data set is classed as organism-based. The settings on record: in vivo, 336 h, time 14 day.
Data set [16] has as its system HepG2. Nature of the data set: Induction of apoptosis in human HepG2 cells assessed as induction of PARP cleavage incubated for 12 hrs by western blot analysis. It counts as functional, cell-based.
The next data set relates to A549. The experiment in a line: Antiproliferative activity against human A549 cells assessed as reduction in cell viability incubated for 48 hrs by MTT assay. The data set is classed as functional, cell-based. Conditions: A549, 48 h.
The test system of data set [17] is HepG2. The experiment in a line: Induction of apoptosis in human HepG2 cells assessed as early apoptotic cells at 10 uM incubated for 12 hrs by AnnexinV-FITC/PI staining based flow cytometry (reference value: 0.83%). The data set is classed as functional.
Data set [18] has as its system HepG2. Nature of the data set: Antitumor activity against human HepG2 cells xenografted in BALB/c nude mouse assessed as inhibition of tumor growth at 50 mg/kg, ip administered once every day for 14 days. It counts as functional. The settings on record: HepG2, 336 h, time 14 day, read-out: TGI.
Data set [19] has as its system HepG2. Nature of the data set: Induction of apoptosis in human HepG2 cells transfected with Nur77 siRNA assessed as induction of PARP cleavage at 10 to 15 uM incubated for 12 hrs by western blot analysis. It counts as functional, cell-based. The settings on record: dose 10-15 µM.
The subject of data set [20] is HepG2. Nature of the data set: Induction of apoptosis in human HepG2 cells transfected with Nur77 siRNA assessed as mitochondrial membrane potential loss by measuring proportion of cells with depolarized MMP at 10 uM incubated for 12 hrs by JC-1 staining based flow cytometry (reference value: 5.81%). It counts as functional.
The target of data set [21] is T1, Nuclear receptor subfamily 4immunitygroup A member 1. The experiment in a line: Binding affinity to pBind-Nur77-LBD (unknown origin) transfected in HEK293T cells co-transfected with pG5-Luc assessed as inhibition of Nur77 transcriptional activity by measuring inhibition of Nur77-driven luciferase activity incubated for 12 hrs by luciferase reporter gene assay. It counts as cell-based. The settings on record: filed as modulator, dose 1.25-5 µM.

T1 sequence (P22736 whole entry, the tested form may be a part): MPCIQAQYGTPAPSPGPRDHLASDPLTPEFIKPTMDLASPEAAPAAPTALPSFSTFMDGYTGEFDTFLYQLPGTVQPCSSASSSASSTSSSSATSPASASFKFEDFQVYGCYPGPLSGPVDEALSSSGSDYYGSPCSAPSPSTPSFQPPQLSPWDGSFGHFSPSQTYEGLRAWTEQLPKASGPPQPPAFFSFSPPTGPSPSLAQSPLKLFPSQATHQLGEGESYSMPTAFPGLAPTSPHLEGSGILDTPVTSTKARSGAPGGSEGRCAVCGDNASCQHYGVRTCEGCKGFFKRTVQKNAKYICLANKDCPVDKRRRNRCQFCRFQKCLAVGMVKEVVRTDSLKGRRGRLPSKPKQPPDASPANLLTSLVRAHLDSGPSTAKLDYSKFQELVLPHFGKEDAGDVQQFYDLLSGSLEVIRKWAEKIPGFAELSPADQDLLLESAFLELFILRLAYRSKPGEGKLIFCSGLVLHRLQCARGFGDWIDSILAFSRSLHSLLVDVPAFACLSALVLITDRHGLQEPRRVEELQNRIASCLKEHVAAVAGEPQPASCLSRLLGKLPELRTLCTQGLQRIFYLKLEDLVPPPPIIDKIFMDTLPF

Take `CN(C)CCCNC(=O)c1cc2cc(Nc3nccc(-c4cccnc4)n3)ccc2[nH]1`: the Activity with HepG2 [1] is 1.92%; in data set [2] (filed as modulator), “Dose-Dependent Effect”; in data set [5] it was “Non-Toxic”; in the data set on HepG2 [8] it was 2.28%; in data set [9] it was “Non-Toxic”; in data set [14] it was “Non-Toxic”. In addition, the Activity result in [15] is “Non-Toxic”; with HepG2 [16], “Dose-Dependent Effect”; with HepG2 [17], 16.5%; in the data set on HepG2 [20], 8.91%; in [21] it was “Dose-Dependent Effect”. The figures for the Kd in data set [2] and in data set [11] were 0.354 µM and 0.121 µM, respectively. For the same compound, the outcome (in data set [3]; with HepG2 [4]; in [7]; in the data set on HepG2 [10]) was Active. In addition, the results for the IC50 in the data set on HeLa, in the data set with HepG2 [13] and with A549 were 3.75 µM, 9.04 µM and 6.63 µM, respectively. Besides, in data set [6], the selectivity ratio was 1.7. The outcome (in data set [12]; in the data set with HepG2 [19]) was inactive. Moreover, the inhibition in vivo at 50 mg/kg with HepG2 [18] amounted to 71.8%.

For the origin of these results see ChEMBL document CHEMBL5247610, “Discovery of 5-((4-(pyridin-3-yl)pyrimidin-2-yl)amino)-1H-indole-2-carboxamide derivatives as novel anti-cancer agents targeting Nur77” (Eur J Med Chem, 2022).
